We go through 1 compound from PubChem BioAssay AID1159612.

Active and inactive are the calls of the source.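 Rule for the calls: active = compounds displacing the labeled ligand from RAR alpha with half-maximal potency at 10 µM or stronger; inactive = the rest.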

The test deals with Retinoic acid receptor alpha (Homo sapiens) (UniProt P10276). Description: RARalpha binders by radioligand displacement, dose response, biochemical, [3H]9-cis-retinoic acid (AID 1159612). To be noted: RARalpha radioligand binding, [3H]9-cis-RA displacement. On the technique in general: Loss of bound radioactivity is the signal in a displacement assay; it reports binding, not function.
Chain of Retinoic acid receptor alpha (Homo sapiens) (P10276 whole entry, looked up): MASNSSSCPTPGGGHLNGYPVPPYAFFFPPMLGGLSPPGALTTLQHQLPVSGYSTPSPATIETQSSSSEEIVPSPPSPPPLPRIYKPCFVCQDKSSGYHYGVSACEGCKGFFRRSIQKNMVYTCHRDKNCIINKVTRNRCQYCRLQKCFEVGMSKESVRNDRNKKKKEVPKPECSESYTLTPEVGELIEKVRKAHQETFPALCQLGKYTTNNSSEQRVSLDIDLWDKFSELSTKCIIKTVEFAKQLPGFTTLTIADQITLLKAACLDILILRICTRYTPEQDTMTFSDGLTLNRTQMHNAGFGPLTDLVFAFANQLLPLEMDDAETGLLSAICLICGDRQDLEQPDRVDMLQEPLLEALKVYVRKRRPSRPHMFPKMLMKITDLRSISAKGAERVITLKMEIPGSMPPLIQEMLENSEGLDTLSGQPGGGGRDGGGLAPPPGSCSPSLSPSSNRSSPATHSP

`CC1=C[C@H](O)CC(C)(C)[C@H]1/C=C/C(C)=C/C=C/C(C)=C/C=C/C=C(C)/C=C/C=C(C)/C=C/C1=C(C)C[C@@H](O)CC1(C)C`: the IC50 entry was “inactive”.
